The record followed here is patent US20130011427A1 (priority 2009, published 2013).

Assay [1] has as its system HLA-B7 (HLA-B*0702) Tg mice, CD4-depleted splenocytes. The class given is cell-based, mouse.
The test system of assay [2] is HLA-DR4/huCD4 (DRB1*0401) Tg mice, CD8-depleted splenocytes. The class given is cell-based, mouse.
Assay [3] relates to HLA-A24/huCD8α (HLA-A*2402) Tg mice, CD4-depleted splenocytes. The class given is cell-based, mouse.
In assay [4] the test system is HLA-DR2 (DRB1*1501) Tg mice, CD8-depleted splenocytes. The class given is cell-based, mouse.
In assay [5] the test system is HLA-A2.1 (HLA-A*0201) Tg mice, CD4-depleted splenocytes. The format is cell-based, mouse.
Assay [6] addresses HLA-A24 (HLA-A*2402 with human β2-microglobulin) (human). Kind of assay: cell-based or functional assay.
Assay [7] addresses HLA-DR4 (HLA-DRA*0101 / HLA-DRB1*0401) (human). Kind of assay: cell-based or functional assay.
For assay [8], the target named is HLA-DR2 (chimeric HLA-DRA1*0101/DRB1*1501 with I-E domains) (human; murine) (UniProt Q8BHN5). Kind of assay: cell-based or functional assay.
Sequence of UniProt Q8BHN5 (Q8BHN5 whole entry, stated change not applied): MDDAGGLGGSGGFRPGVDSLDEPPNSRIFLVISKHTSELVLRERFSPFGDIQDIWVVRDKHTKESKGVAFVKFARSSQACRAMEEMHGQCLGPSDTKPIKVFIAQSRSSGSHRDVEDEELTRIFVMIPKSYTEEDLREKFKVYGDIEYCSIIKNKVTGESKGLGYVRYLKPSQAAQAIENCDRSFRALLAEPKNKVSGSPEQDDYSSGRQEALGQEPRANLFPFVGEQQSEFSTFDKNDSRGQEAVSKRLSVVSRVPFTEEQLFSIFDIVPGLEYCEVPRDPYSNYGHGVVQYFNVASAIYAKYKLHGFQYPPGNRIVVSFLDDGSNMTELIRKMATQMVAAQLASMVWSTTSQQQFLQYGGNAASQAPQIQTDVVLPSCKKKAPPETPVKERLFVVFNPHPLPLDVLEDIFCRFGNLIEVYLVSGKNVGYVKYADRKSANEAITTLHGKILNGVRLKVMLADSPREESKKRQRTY
In assay [9] the target is HLA-B7 (chimeric HLA-B*0702 / H-2K^d heavy chain) (human; murine) (UniProt P01902). Kind of assay: cell-based or functional assay.
Sequence of UniProt P01902 (P01902 whole entry, change not shown): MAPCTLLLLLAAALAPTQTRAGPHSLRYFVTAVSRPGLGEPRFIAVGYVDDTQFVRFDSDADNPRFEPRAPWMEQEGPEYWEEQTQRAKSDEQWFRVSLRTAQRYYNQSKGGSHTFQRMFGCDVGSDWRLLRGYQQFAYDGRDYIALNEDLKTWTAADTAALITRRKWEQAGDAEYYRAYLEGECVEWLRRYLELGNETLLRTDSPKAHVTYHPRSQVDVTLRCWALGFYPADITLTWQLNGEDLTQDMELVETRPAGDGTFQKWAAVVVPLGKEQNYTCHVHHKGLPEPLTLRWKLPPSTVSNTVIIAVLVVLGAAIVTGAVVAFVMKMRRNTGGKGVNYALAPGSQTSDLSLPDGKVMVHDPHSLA
In assay [10] the target is HLA-DR3 (HLA-DRA*0101 / HLA-DRB1*0301) (human). Kind of assay: cell-based or functional assay.

Turning to CDIGESSSSAEVEEHRTI [NS5 145-162], the “T cell activation of HLA transgenic mice (SFC/10^6) IFN-γ ELISpot, B7” value (“T cell activation of HLA transgenic mice … B7” below) in assay [1] is on record as 50 ± 22 SFC/10^6.

As to GGVLWDTPSPKEYKK [NS3 1-15], in assay [1], the “T cell activation of HLA transgenic mice … B7” value came out at 45 ± 12 SFC/10^6.

GKSRAVNMLKRGMPRVL [C 9-25]: in assay [1], the “T cell activation of HLA transgenic mice … B7” value was found to be 43 ± 17 SFC/10^6.

In the case of ISAYTPWAILPSVVGFWI [NS2b 107-124], the “T cell activation of HLA transgenic mice … B7” value in [1] came to 81 ± 8 SFC/10^6. The “T cell activation of HLA transgenic mice (SFC/10^6) IFN-γ ELISpot, DR4” value in assay [2] came to 163 ± 4 SFC/10^6. Also, the “T cell activation of HLA transgenic mice (SFC/10^6) IFN-γ ELISpot, A24” value in [3] worked out at 50 ± 11 SFC/10^6.

With LRNPGYALVAAVIGWML [prM 129-145], in assay [1], the “T cell activation of HLA transgenic mice … B7” value is 31 ± 7 SFC/10^6. Further, the “T cell activation of HLA transgenic mice (SFC/10^6) IFN-γ ELISpot, DR2” value in assay [4] is given as 62 ± 11 SFC/10^6. The “T cell activation of HLA transgenic mice (SFC/10^6) IFN-γ ELISpot, A24” value in [3] was 71 ± 38 SFC/10^6.

Consider PAAPSYTLKLGEYGEVTV [E 171-188], for which, in assay [5], the “T cell activation of HLA transgenic mice (SFC/10^6) IFN-γ ELISpot, A2” value is recorded as 279 ± 217 SFC/10^6. Also, the “T cell activation of HLA transgenic mice … B7” value in assay [1] was 996 ± 100 SFC/10^6.

Regarding SAEVEEHRTIRVLEMV [NS5 153-168], in [5], the “T cell activation of HLA transgenic mice (SFC/10^6) IFN-γ ELISpot, A2” value is on record as 332 ± 52 SFC/10^6. Also, the “T cell activation of HLA transgenic mice … B7” value in [1] is reported as 112 ± 72 SFC/10^6. Further, in assay [4], the “T cell activation of HLA transgenic mice (SFC/10^6) IFN-γ ELISpot, DR2” value came to 250 ± 24 SFC/10^6.

As for TFLVHREWFMDLNLPW [E 210-225], the “T cell activation of HLA transgenic mice (SFC/10^6) IFN-γ ELISpot, A2” value in assay [5] came out at 323 ± 175 SFC/10^6. Further, in assay [1], the “T cell activation of HLA transgenic mice … B7” value is 519 ± 477 SFC/10^6.

On to WMEDKTPVEKWSDVPY [NS5 828-843], for which the “T cell activation of HLA transgenic mice … B7” value in assay [1] was found to be 39 ± 14 SFC/10^6.

In the case of WNV E 195-212 peptide, the IFN-γ ELISpot (SFC/10^6) was found to be 137 SFC/10^6 in [6] and 53 SFC/10^6 in assay [7].

WNV NS2a 45-61 peptide: the values for the IFN-γ ELISpot (SFC/10^6) in assay [6], in assay [7] and in assay [8] were 243 SFC/10^6, 74 SFC/10^6 and 307 SFC/10^6, respectively.

With WNV NS2b 107-124 peptide, the IFN-γ ELISpot (SFC/10^6) in [6] amounted to 50 SFC/10^6; in [9], 81 SFC/10^6; in assay [7], 163 SFC/10^6.

As to WNV NS4a 86-103 peptide, the IFN-γ ELISpot (SFC/10^6) was 65 SFC/10^6 in assay [6] and 63 SFC/10^6 in assay [7].

As for WNV NS5 470-486 peptide, the IFN-γ ELISpot (SFC/10^6) in assay [6] was found to be 183 SFC/10^6.

On to WNV NS5 863-879 peptide, for which the values for the IFN-γ ELISpot (SFC/10^6) in assay [6], in assay [7] and in [10] were 79 SFC/10^6, 33 SFC/10^6 and 121 SFC/10^6, respectively.

For WNV prM 129-145 peptide, the IFN-γ ELISpot (SFC/10^6) was determined as 71 SFC/10^6 in [6], 31 SFC/10^6 in assay [9] and 62 SFC/10^6 in assay [8].

YAQMWLLLYFHRRDLRLM [NS5 763-780]: the “T cell activation of HLA transgenic mice … B7” value in assay [1] amounted to 36 ± 16 SFC/10^6. The “T cell activation of HLA transgenic mice (SFC/10^6) IFN-γ ELISpot, DR4” value in [2] was found to be 91 ± 32 SFC/10^6.
